The structures appear in SMILES notation.

The data set is described as follows: Agilent ZORBAX 300 SB-C18, 150 × 1 mm, 3.5 µm; A: water + 0.01% heptafluorobutyric acid; B: acetonitrile + 0.01% heptafluorobutyric acid; gradient (min/%B) 0/0 100/90. The settings on record: stereoisomer not certain.
As for `O=C(O)CC(CNC(=O)CCCCCN1C(=O)c2ccccc2C1=O)c1ccccc1` (stereo not drawn), the LC retention time turned out to be 11.6 min.

Turning to `NC(=O)c1cc2ccccc2o1`, the LC retention time was found to be 9.05 min.

On to `O=C(C(Cc1ccccc1)n1cccc1)N1CCCC1` (stereo not drawn), for which the LC retention time was determined as 13.8 min.

`CC(=O)C=Cc1ccccc1`: the LC retention time was 11.8 min.

For the compound `Cc1ccncc1C`, the LC retention time is 6.82 min.

On to `Cn1c(=O)[nH]c(=O)n(C)c1=O`, for which the LC retention time worked out at 5.9 min.

In the case of `c1c[nH]cn1`, the LC retention time came to 2.95 min.

On to `Cc1ccc(C)n1Cc1ccccc1`, for which the LC retention time was found to be 16.8 min.

As for `CC1Cc2ccccc2N1C(=O)CN1CCN(C)CC1` (stereo not drawn), the LC retention time turned out to be 8.74 min.

As for `COc1cc(C)c(NC(C)=O)c(C)c1`, the LC retention time was 8.85 min.

`CCC(C)c1ccccc1NC(=S)Nc1cccnc1` (stereo not drawn): the LC retention time turned out to be 11 min.

As for `OC(Cc1c[nH]c2ccccc12)(c1ccccc1)c1ccccc1`, the LC retention time is 16.1 min.

For `CC(N)=C1C(=O)C(=O)N(C)C1c1ccccc1` (stereo not drawn), the LC retention time was found to be 8.68 min.

For the compound `S=C(Nc1cccnc1)NC1CCCc2ccccc21` (stereo not drawn), the LC retention time is 11 min.

Consider `CCCCN(CCCC)C(=O)c1ccc(OC(C)=O)cc1`, for which the LC retention time came out at 15.3 min.

Take `O=C(CCCCCN1C(=O)c2ccccc2C1=O)NCc1ccccn1`: the LC retention time was 9.55 min.

`Cc1ccc(-c2csc(-c3cccnc3)n2)cc1C`: the LC retention time was 11.3 min.

For `COc1ccc2nc(C)c3c(c2c1)OC(C)C3` (stereo not drawn), the LC retention time amounted to 9.25 min.

Take `Nc1ccc2c(c1)oc1ccccc12`: the LC retention time was 11.6 min.

With `O=Cc1c(-c2ccccc2)[nH]c2ccccc12`, the LC retention time worked out at 12.7 min.

As for `NC1CCCCC1`, the LC retention time came out at 7.63 min.

Consider `Nc1ccc(CN2CCCC2)cc1`, for which the LC retention time came out at 7.04 min.

Turning to `CC(C)CNCC(C)C`, the LC retention time stood at 8.04 min.

In the case of `NCC(=O)CCC(=O)O`, the LC retention time is 3.25 min.

Turning to `Cc1ccc(C2C3=C(CC(C)(C)CC3=O)NC3=C2C(=O)CC(C)(C)C3)cc1`, the LC retention time was 13.2 min.

With `S=C(NC1CCCCC1)NC1CCCCC1`, the LC retention time came to 14.9 min.

As to `CC(C)(C=O)CN1CCCC1`, the LC retention time turned out to be 6.76 min.

`N=C(N)SCCSCCSC(=N)N`: the LC retention time turned out to be 7.21 min.

As for `O=Cc1ccc2cccnc2c1`, the LC retention time is 8.85 min.

Take `CC(=O)c1c(-c2ccccc2)[nH]c2ccccc12`: the LC retention time is 13 min.

As to `COCCc1ccc(OCC(O)CNC(C)C)cc1` (stereo not drawn), the LC retention time came to 9.27 min.

Consider `CCN(CC)CCOc1ccccc1OC`, for which the LC retention time worked out at 8.83 min.

For the compound `O=c1cc(Nc2ccccc2)c2ccccc2o1`, the LC retention time came to 12.2 min.

`Cc1[nH]c(C)c(C(=O)Nc2ccccc2)c1C`: the LC retention time came to 11.9 min.

`Cc1cccc(NC(N)=S)n1`: the LC retention time is 8.81 min.

On to `CC(=O)Nc1c2ccccc2nc2ccccc12`, for which the LC retention time was determined as 7.89 min.

`CCn1c(-c2ccccc2)nn(CN2CCCC2)c1=S`: the LC retention time worked out at 11.8 min.

Turning to `CNCc1cccc(OC)c1OC`, the LC retention time was found to be 7.9 min.

In the case of `CC(C)(C)NC(=S)NCc1ccccc1`, the LC retention time stood at 13.4 min.

As for `CCCN1CCCCC1C(=O)Nc1c(C)cccc1C` (stereo not drawn), the LC retention time came out at 9.88 min.

Consider `CC(=O)Nc1ccc(NC(=O)CCC(=O)O)cc1`, for which the LC retention time was determined as 6.9 min.

As for `COc1ccc(C(=O)C=Cc2ccc(OC)c(COc3cccc(C)c3C)c2)cc1`, the LC retention time was determined as 19.9 min.

On to `Nc1cccnc1N`, for which the LC retention time is 6.18 min.

Consider `CCCN`, for which the LC retention time turned out to be 4.83 min.

With `COc1ccc(C=CC(=O)c2ccccc2)cc1OC`, the LC retention time was 14.5 min.

As to `O=c1[nH]c2ccccc2c(=O)n1CCO`, the LC retention time was 7.39 min.

As for `Cc1nncn1-c1ccccc1`, the LC retention time was found to be 8.5 min.

For the compound `O=C1NC(Cc2c[nH]c3ccccc23)C(=O)NC1Cc1c[nH]c2ccccc12` (stereo not drawn), the LC retention time was found to be 9.58 min.

Regarding `CCN1CN(Cc2ccccc2)CNC1=S`, the LC retention time is 10.8 min.

In the case of `COc1ccc(N2CCCC2=O)cc1`, the LC retention time is 9.78 min.

With `Cc1cccc2c1CC(C)(C)NC2=S`, the LC retention time amounted to 13.3 min.

In the case of `NC(=O)C(O)c1ccccc1` (stereo not drawn), the LC retention time was 6.19 min.

Regarding `CN(C)CCCOc1nn(Cc2ccccc2)c2ccccc12`, the LC retention time was found to be 11.2 min.

For the compound `CC(C)c1ccc(OCC(=O)N2CCC(C(N)=O)CC2)cc1`, the LC retention time amounted to 10.8 min.

On to `CN(C)CCN`, for which the LC retention time turned out to be 6.51 min.

Consider `CN(CCNc1ccccc1)C(N)=O`, for which the LC retention time amounted to 7.86 min.

In the case of `Cn1c(=O)n(C)c2cc(N)ccc21`, the LC retention time amounted to 6.8 min.

As to `CN1CC(C(=O)O)CC1=O` (stereo not drawn), the LC retention time was determined as 3.04 min.

`CCOC(=O)C1C(C)=NC(=O)NC1C` (stereo not drawn): the LC retention time stood at 8.75 min.

In the case of `S=c1nccc(-c2ccc3ccccc3c2)[nH]1`, the LC retention time came out at 10.6 min.

`CCCNC1CCN(C(C)=O)CC1`: the LC retention time stood at 6.77 min.

Take `Nc1ccc2[nH]c3c(c2c1)CCCC3`: the LC retention time is 8.89 min.

For `CCOC(N)=O`, the LC retention time is 4.72 min.

Consider `O=C(c1cccc(C(=O)N(Cc2ccccc2)c2ccccn2)c1)N(Cc1ccccc1)c1ccccn1`, for which the LC retention time was found to be 15.4 min.

For `CC(C)Cn1c2ccccc2c2ccccc21`, the LC retention time amounted to 19.5 min.

Consider `OCC1CC(O)CN1` (stereo not drawn), for which the LC retention time was 2.85 min.

Consider `CC(=O)Oc1ccc2cccc(N(C(C)=O)C(C)=O)c2c1`, for which the LC retention time came to 12 min.

For the compound `Cc1c(C(=O)Nc2ccccn2)c(C(C)N=Nc2ccccc2)cc(=O)n1-c1ccccn1` (stereo not drawn), the LC retention time amounted to 11.7 min.

For `CCc1c(C)[nH]c(C(=O)OCc2ccccc2)c1C`, the LC retention time was found to be 17.1 min.

Regarding `CNC1C(OC2C(OC3C(O)C(O)C(N=C(N)N)C(O)C3N=C(N)N)OC(C)C2(O)C=O)OC(CO)C(O)C1O` (stereo not drawn), the LC retention time is 7.82 min.

As to `CC(C)c1ccc(C(=O)CCN(C)C)cc1`, the LC retention time came to 9.8 min.

Consider `COc1ccc(OC)c2c(C)cc(C)nc12`, for which the LC retention time amounted to 8.94 min.

In the case of `Cc1cc(=O)n(C)c(=O)n1CCCN1CCCC1`, the LC retention time was determined as 7.09 min.

Regarding `CNCCNC`, the LC retention time worked out at 6.51 min.

Take `Cc1ccc(C(=O)O)c(=O)[nH]1`: the LC retention time is 6.43 min.

Turning to `CN(C)C(=N)N(C)C`, the LC retention time amounted to 6.49 min.

Consider `COC(=O)CCNC(C)Cc1ccccc1` (stereo not drawn), for which the LC retention time was determined as 8.9 min.

As to `C=CCNC1CCCC1`, the LC retention time was determined as 7.45 min.

With `COc1ccccc1CC(=O)Nc1cccc(C)c1`, the LC retention time worked out at 13.9 min.

Turning to `Cc1ncnc2nc[nH]c12`, the LC retention time is 5.87 min.

Take `CC(COc1ccccc1)NC(C)C(O)c1ccc(O)cc1` (stereo not drawn): the LC retention time worked out at 9.89 min.

Regarding `O=C(Nc1ccc2c(c1)oc1ccccc12)c1ccc(C2CCCCC2)cc1`, the LC retention time was determined as 20.1 min.

On to `O=C(NN=Cc1cccnc1)c1ccccn1`, for which the LC retention time was 7.9 min.

`CCn1c2ccccc2c2cc(C(=O)O)ccc21`: the LC retention time was found to be 13.5 min.

As to `Cc1cc(C)cc(NC(=O)c2cc(-c3ccccc3)nc3ccccc23)c1`, the LC retention time is 17.9 min.

For `Oc1ccc2c(c1)C13CCCCC1(O)C(C2O)N(CC1CCC1)CC3` (stereo not drawn), the LC retention time was found to be 8.68 min.

`S=C(NCc1ccccc1)NCc1ccc2[nH]c3c(c2c1)CCCC3`: the LC retention time is 15.4 min.

Consider `CNCc1n[nH]c(=O)[nH]1`, for which the LC retention time amounted to 2.58 min.

Turning to `c1ccc(-n2ncc(-c3nn[nH]n3)n2)cc1`, the LC retention time amounted to 10.5 min.

Take `NCCCCCCN`: the LC retention time was 6.78 min.

For `CC(C)(C)c1ccc(C(=O)Nc2ccc(N)cc2)cc1`, the LC retention time is 11.2 min.

As for `C=CC1CN2CCC1CC2C(O)c1ccnc2ccccc12` (stereo not drawn), the LC retention time worked out at 8.84 min.

`OCCCCNCc1ccccc1`: the LC retention time was 7.61 min.

For the compound `CC(C)(C)Nc1ncnc2ccccc12`, the LC retention time turned out to be 9.02 min.

In the case of `Cc1[nH]c2ccccc2c1C=NNC(N)=S`, the LC retention time worked out at 9.71 min.

In the case of `CC(Nc1ccc2ccccc2c1)C(=O)NN=Cc1cccc2ccccc12` (stereo not drawn), the LC retention time worked out at 16.7 min.

As to `CN(C)CCOC(C)(c1ccccc1)c1ccccn1` (stereo not drawn), the LC retention time was found to be 8.98 min.

Take `O=S(=O)(O)CCNC1CCCCC1`: the LC retention time stood at 5.78 min.

Consider `CC(C)c1ccccc1NC(=S)NCCN1CCN(C(=S)Nc2ccccc2C(C)C)CC1`, for which the LC retention time worked out at 12.5 min.

On to `Nc1ccccc1NCCOc1ccccc1`, for which the LC retention time amounted to 11 min.

As to `C=CC[n+]1ccc2ccccc2c1`, the LC retention time stood at 7.67 min.

`O=C(O)c1cc(-c2ccncc2)nc2ccccc12`: the LC retention time worked out at 8.16 min.

For the compound `CC(C)C[NH2+]C(CC(=O)O)c1ccccc1` (stereo not drawn), the LC retention time turned out to be 8.51 min.

Turning to `Cc1nc2ccccc2nc1C=O`, the LC retention time came out at 10.9 min.

For `CNCc1cccc(C)c1`, the LC retention time is 8.02 min.

`C=C(C)CC1C=CCC(CC(=C)C)N1` (stereo not drawn): the LC retention time stood at 9.63 min.

`CN(C)c1ccc(N)cc1`: the LC retention time turned out to be 6.86 min.

Regarding `Cn1cnc2c1c(=O)[nH]c(=O)n2C`, the LC retention time turned out to be 6.5 min.

Regarding `c1ccc(Oc2nnc(-c3ccccc3)c3ccccc23)cc1`, the LC retention time came to 15.8 min.

For `CCc1ccc(C2Nc3ccccc3C(=O)N2c2ccc(N(C)C)cc2)cc1` (stereo not drawn), the LC retention time was found to be 13.7 min.

As to `O=C1NCC2(CCN(CCc3ccccc3)CC2)O1`, the LC retention time is 8.72 min.

Regarding `CC1(C)CC(=O)NC(=O)C1`, the LC retention time stood at 7.12 min.

Turning to `Nc1cc(N)cc(C(=O)O)c1`, the LC retention time was determined as 4.34 min.

These data come from the RepoRT retention time repository.
